Laboratory results reported in patent US20110071094A1, “(D)-ALLOSE INDUCING PROGRAMMED CELL DEATH IN HORMONE REFRACTORY PROSTATE CANCER LINES” (INDUSTRY-ACADEMIC COOPERATION FOUDATION, GYEONGSANG …, priority 2008, published 2011).

Experiments:
Assay type in all cases: cell-based, human
Bax mRNA = test: RT-PCR of Bax mRNA in DU145; conditions: DU145, 72 h, 0, 20 and 40 mM; relative to reduced Bcl-2 mRNA
Experimental: (§1) To identify the relative levels of expression of Bcl-2, Bax and Caspase 3 mRNAs after 0, 20 and 40 mM of D-allose treatments for 72 h, RT-PCR was performed. DU145 cell line (1×10^6 cells in triplicate culture plates) was harvested as mentioned above and total RNA was extracted using TRIzol reagent (Invitrogen, Carlsbad, Calif., USA) following a standard laboratory protocol. The RNA purity and concentrations were determined. Then 2 μg of total RNA was reversely transcribed to single-stranded cDNA using Oligo(dT)12-18 primer (Invitrogen, Carlsbad, Calif., USA) with M-MLV reverse transcriptase (Promega, Madison, Wis., USA). For PCR reaction, 4 μl of cDNA was reacted with 20 pmol each of the forward and reverse primers (Bioneer Corporation, Seoul, South Korea), and GoTaq® Green Master Mix […] containing PCR buffer, 25 mM magnesium chloride, 10 mM dNTP mix and Taq enzyme (Promega, Madison, Wis., USA), and amplified. […] The molecular sizes of the amplified products were determined by comparison with the molecular weight marker (100 by DNAladder; Promega, Madison, Wis., USA) run parallel with the PCR products. The densities of mRNA bands were analyzed by Molecular Analyst™, version 1.4.1 (Bio-Rad, Hercules, Calif., USA).

Bcl-2 mRNA = test: RT-PCR of Bcl-2 mRNA in DU145; conditions: DU145, 72 h, 0, 20 and 40 mM
Experimental: as §1

Bcl-2/Bax ratio = test: Calculation of Bcl-2/Bax ratio from densitometry of protein bands; conditions: 72 h, 0.896 at 0 Mm
Experimental: After 0, 20 and 40 mM of D-allose treatments for 72 h, DU145 cell line (1×10^6 cells in triplicate culture plates) was harvested into cell lysis buffer (Cell Signaling, Danvers, Mass., USA) supplemented with 1 mM PMSF. The cells were then sonicated, centrifuged and protein concentration was measured by Bradford assay with the Bio-Rad protein assay solution using bovine serum albumin (BSA) as standard. Proteins (30 μg) were separated on a 12.5% SDS-PAGE under reducing conditions and transferred onto a PVDF membrane (Santa Cruz Biotechnology, Santa Cruz, Calif., USA). Prestained protein marker, broad range: 6-175 kDa (New England Biolabs Inc., Ipswich, Mass., USA) run in parallel for detection of the molecular weights of the proteins. […] Membrane was probed with a goat derived horseradish peroxidase-conjugated anti-rabbit IgG (1:1000; Santa Cruz Biotechnology, Santa Cruz, Calif., USA), and proteins were detected by the enhanced chemiluminescence (ECL) detection system according to the vendor's protocol (Amersham Biosciences, Piscataway, N.J., USA) followed by X-ray exposure. […] Bcl-2/bax ratios of D-allose treated groups were calculated on the basis of the densitometric analysis of the corresponding protein bands and compared the values with that of the untreated control.

caspase 3 = test: Western blot analysis of caspase 3 protein in DU145; conditions: DU145, 0, 20 and 40 mM, 72 h
Experimental: After 0, 20 and 40 mM of D-allose treatments for 72 h, DU145 cell line (1×10^6 cells in triplicate culture plates) was harvested into cell lysis buffer (Cell Signaling, Danvers, Mass., USA) supplemented with 1 mM PMSF. The cells were then sonicated, centrifuged and protein concentration was measured by Bradford assay with the Bio-Rad protein assay solution using bovine serum albumin (BSA) as standard. Proteins (30 μg) were separated on a 12.5% SDS-PAGE under reducing conditions and transferred onto a PVDF membrane (Santa Cruz Biotechnology, Santa Cruz, Calif., USA). Prestained protein marker, broad range: 6-175 kDa (New England Biolabs Inc., Ipswich, Mass., USA) run in parallel for detection of the molecular weights of the proteins. Membrane was blocked with 5% (w/v) skimmed milk in order to reduce non-specific binding and immunoblotting was performed using rabbit derived anti-Bcl-2, anti-Bax, anti-Caspase 3 and anti-PARP antibodies (1:500; Santa Cruz Biotechnology, Santa Cruz, Calif., USA). […] Membrane was probed with a goat derived horseradish peroxidase-conjugated anti-rabbit IgG (1:1000; Santa Cruz Biotechnology, Santa Cruz, Calif., USA), and proteins were detected by the enhanced chemiluminescence (ECL) detection system according to the vendor's protocol (Amersham Biosciences, Piscataway, N.J., USA) followed by X-ray exposure. […]

O=C[C@H](O)[C@H](O)[C@H](O)[C@H](O)CO [D-allose]
Bax mRNA expression (Bax mRNA): opposite effect
Bcl-2 mRNA expression (Bcl-2 mRNA): significantly reduced
Bcl-2/Bax ratio (Bcl-2/Bax ratio; DU145, 20 Mm): 0.335
Bcl-2/Bax ratio (Bcl-2/Bax ratio; DU145, 40 Mm): 0.126
cleaved caspase 3 product (caspase 3): concomitant increase
full length caspase 3 protein expression (caspase 3): remarkable dose-dependent decrease
